From patent US20150239889A1, “PYRAZOLOPYRIMIDINE COMPOUND” (MITSUBISHI TANABE PHARMA CORPORATION, priority 2012, published 2015)
Structures can show the parent of a compound that is named as a salt.

How the values were obtained:
[1] = target: T1, human HIF-PHD3 (Homo sapiens, UniProt Q9H6Z9); experiment: HIF-PHD inhibition assay (fluorescence polarization), human HIF-PHD3; type: biochemical; details: 2-oxoglutaric acid 166 μmol/L
T1 construct: purchased CrystalGenomics Ltd
Method: (§1) The activity of the test compound to inhibit human HIF-PHD2 and human HIF-PHD3 was determined.
(§2) The value of enzyme activity was calculated by subtracting the value of fluorescence polarization before addition of the enzyme from the value of fluorescence polarization after addition of enzyme (mP value).
(§3) FAM: 5′-fluoresceinamide ACA: aminocaproic acid

[2] = target: T2, human HIF-PHD2 (Homo sapiens, UniProt Q9GZT9); experiment: HIF-PHD inhibition assay (fluorescence polarization), human HIF-PHD2; type: biochemical; details: 2-oxoglutaric acid 3.33 μmol/L
T2 construct: purchased CrystalGenomics Ltd
Method: as §1, §2, §3

T1 sequence (Q9H6Z9 whole entry): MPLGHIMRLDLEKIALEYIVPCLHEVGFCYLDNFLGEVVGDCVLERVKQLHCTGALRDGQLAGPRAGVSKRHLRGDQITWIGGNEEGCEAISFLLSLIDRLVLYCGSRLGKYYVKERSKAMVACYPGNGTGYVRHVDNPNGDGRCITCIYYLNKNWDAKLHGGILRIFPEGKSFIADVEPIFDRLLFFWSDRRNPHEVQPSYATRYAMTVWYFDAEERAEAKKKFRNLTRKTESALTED
T2 sequence (Q9GZT9 2-426 limits assumed): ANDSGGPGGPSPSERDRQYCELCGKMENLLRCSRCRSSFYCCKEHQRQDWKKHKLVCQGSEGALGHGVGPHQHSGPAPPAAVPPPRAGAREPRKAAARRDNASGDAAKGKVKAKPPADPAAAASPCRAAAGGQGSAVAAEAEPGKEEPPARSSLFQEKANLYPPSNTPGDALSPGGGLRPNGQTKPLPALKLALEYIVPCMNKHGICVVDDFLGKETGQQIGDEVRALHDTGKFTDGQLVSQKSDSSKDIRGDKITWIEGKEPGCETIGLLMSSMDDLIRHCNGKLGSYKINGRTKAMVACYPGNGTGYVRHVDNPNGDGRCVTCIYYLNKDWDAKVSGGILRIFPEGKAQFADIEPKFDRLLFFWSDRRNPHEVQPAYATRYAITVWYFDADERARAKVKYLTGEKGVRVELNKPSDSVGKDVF

Compound	IC50 [1] [nM]	IC50 [2] [nM]
CC[C@@H](c1ccc(Cl)c(Cl)c1)n1ncc2nc(-n3cc(C(=O)O)cn3)nc(O)c21 [Example 336]	170	23
Cc1nn(C2CCCCC2)c2c(O)nc(-n3cc(C(=O)O)cn3)nc12 [Example 227]	3800	130
O=C(O)c1cnn(-c2nc(O)c3c(cnn3C(c3cccc(Cl)c3)C3CC3)n2)c1 (stereo not drawn) [Example 374]	630	51
C[C@H](c1cc(F)cc(C(F)(F)F)c1)n1ncc2nc(-n3cc(C(=O)O)cn3)nc(O)c21 [Example 273]	520	92
C[C@@H](c1cc(F)ccc1F)n1nc(C2CC2)c2nc(-n3cc(C(=O)O)cn3)nc(O)c21 [Example 461]	1600	230
C[C@@H](c1ccc(OC(F)(F)F)cc1)n1ncc2nc(-n3cc(C(=O)O)cn3)nc(O)c21 [Example 276]	380	15
C[C@@H]1C[C@H](C)C[C@@H](n2ncc3nc(-n4cc(C(=O)O)cn4)nc(O)c32)C1 [Example 402]	710	24
O=C(O)c1cnn(-c2nc(O)c3c(cnn3C3CCCCCC3)n2)c1 [Example 393]	310	41
CCC1CCCC(n2ncc3nc(-n4cc(C(=O)O)cn4)nc(O)c32)C1 (single isomer, unassigned) [Example 416]	530	18
CCc1nn(CC2CCCCC2)c2c(O)nc(-n3cc(C(=O)O)cn3)nc12 [Example 232]	1400	150
C[C@H]1CC[C@H](n2ncc3nc(-n4cc(C(=O)O)cn4)nc(O)c32)CC1 [Example 384]	500	60
CC[C@@H](c1ccc(Cl)c(Cl)c1)n1nc(C)c2nc(-n3cc(C(=O)O)cn3)nc(O)c21 [Example 455]	790	65
O=C(O)c1cnn(-c2nc(O)c3c(cnn3C(c3cccc(Cl)c3)C3CC3)n2)c1 (single isomer, unassigned) [Example 375]	500	52
O=C(O)c1cnn(-c2nc(O)c3c(cnn3C(c3ccc(F)c(Cl)c3)C3CC3)n2)c1 (single isomer, unassigned) [Example 371]	400	41
O=C(O)c1cnn(-c2nc(O)c3c(cnn3CCCOc3ccc(C4CCCCC4)cc3)n2)c1 [Example 185]	330	15
C[C@@H](c1ccc(F)c(Cl)c1)n1nc(C2CC2)c2nc(-n3cc(C(=O)O)cn3)nc(O)c21 [Example 462]	990	81
C[C@@H](c1ccc(C(F)(F)F)cc1)n1nc(C(F)(F)F)c2nc(-n3cc(C(=O)O)cn3)nc(O)c21 [Example 463]	930	65
CCC(c1cc(F)cc(F)c1)n1ncc2nc(-n3cc(C(=O)O)cn3)nc(O)c21 (stereo not drawn) [Example 332]	550	45
CC(C)C(c1cc(F)cc(F)c1)n1ncc2nc(-n3cc(C(=O)O)cn3)nc(O)c21 (stereo not drawn) [Example 360]	770	64

Compound	IC50 [1] [nM]	IC50 [2] [nM]
CC1(C)CCC(n2ncc3nc(-n4cc(C(=O)O)cn4)nc(O)c32)CC1 [Example 386]	840	38
CC[C@@H](c1ccc(OC(F)(F)F)c(Cl)c1)n1ncc2nc(-n3cc(C(=O)O)cn3)nc(O)c21 [Example 353]	490	14
CC1(C)CCCC(n2ncc3nc(-n4cc(C(=O)O)cn4)nc(O)c32)C1 (stereo not drawn) [Example 411]	550	40
CC(C)C(C(C)C)n1ncc2nc(-n3cc(C(=O)O)cn3)nc(O)c21 [Example 489]	900	150
CCC1CCCC(n2ncc3nc(-n4cc(C(=O)O)cn4)nc(O)c32)C1 (stereo not drawn) [Example 413]	680	42
CCC(c1cc(F)cc(Cl)c1)n1ncc2nc(-n3cc(C(=O)O)cn3)nc(O)c21 (single isomer, unassigned) [Example 340]	300	16
CCC1CCCC(n2ncc3nc(-n4cc(C(=O)O)cn4)nc(O)c32)C1 (single isomer, unassigned) [Example 414]	820	33
Cc1ccc([C@H](C)n2nc(F)c3nc(-n4cc(C(=O)O)cn4)nc(O)c32)cc1C [Example 441]	430	60
O=C(O)c1cnn(-c2nc(O)c3c(cnn3C3CCCCCCC3)n2)c1 [Example 394]	420	33
CC[C@H]1CC[C@H](Cn2nc(F)c3nc(-n4cc(C(=O)O)cn4)nc(O)c32)CC1 [Example 219]	1400	11
CC(c1cc(F)cc(Cl)c1)n1ncc2nc(-n3cc(C(=O)O)cn3)nc(O)c21 (stereo not drawn) [Example 305]	590	59
O=C(O)c1cnn(-c2nc(O)c3c(n2)c(Cc2ccccc2)nn3CC2CCCCC2)c1 [Example 504]		160
O=C(O)c1cnn(-c2nc(O)c3c(cnn3C3CCC(F)(F)CC3)n2)c1 [Example 392]	1300	42
CCC(CC)n1ncc2nc(-n3cc(C(=O)O)cn3)nc(O)c21 [Example 487]	530	81
C[C@@H](c1cc(Cl)ccc1Cl)n1ncc2nc(-n3cc(C(=O)O)cn3)[nH]c(=O)c21 [Example 263]	610	
O=C(O)c1cnn(-c2nc(O)c3c(cnn3CC3CCNCC3)n2)c1 [Example 169]	2100	
C[C@@H](c1ccc(F)cc1F)n1nc(C2CC2)c2nc(-n3cc(C(=O)O)cn3)nc(O)c21 [Example 460]		180
CCC(c1cc(C(F)(F)F)cc(C(F)(F)F)c1)n1ncc2nc(-n3cc(C(=O)O)cn3)nc(O)c21 (single isomer, unassigned) [Example 335]		76
Cc1cc(Cl)cc([C@@H](C)n2ncc3nc(-n4cc(C(=O)O)cn4)nc(O)c32)c1 [Example 266]		73

Next, values leading:

IC50 [1] [nM]	IC50 [2] [nM]	Compound
590	39	Cc1ccc(C(C)n2ncc3nc(-n4cc(C(=O)O)cn4)nc(O)c32)cc1 (single isomer, unassigned) [Example 292]
540	64	C[C@@H](c1ccc(F)cc1F)n1ncc2nc(-n3cc(C(=O)O)cn3)nc(O)c21 [Example 255]
510	110	Cc1ccc(Cl)cc1C(C)n1ncc2nc(-n3cc(C(=O)O)cn3)nc(O)c21 (single isomer, unassigned) [Example 312]
700	64	Cc1ccc(C(C)n2ncc3nc(-n4cc(C(=O)O)cn4)nc(O)c32)cc1F (stereo not drawn) [Example 295]
270	31	O=C(O)c1cnn(-c2nc(O)c3c(cnn3Cc3ccc(-c4ccc(C(F)(F)F)cc4Cl)cc3)n2)c1 [Example 73]
72	20	O=C(O)c1cnn(-c2nc(O)c3c(cnn3Cc3ccc(-c4ccc(Cl)cc4F)cc3)n2)c1 [Example 74]
530	25	CC[C@@H](c1ccc(F)c(C)c1)n1ncc2nc(-n3cc(C(=O)O)cn3)nc(O)c21 [Example 344]
430	64	O=C(O)c1cnn(-c2nc(O)c3c(cnn3C3Cc4ccccc4C3)n2)c1 [Example 395]
180	48	CCC(c1ccc(Cl)cc1)n1ncc2nc(-n3cc(C(=O)O)cn3)nc(O)c21 (stereo not drawn) [Example 322]
180	49	C[C@@H](c1ccc(F)c(Cl)c1)n1ncc2nc(-n3cc(C(=O)O)cn3)nc(O)c21 [Example 250]
480	36	CCC(c1cccc(C(F)(F)F)c1)n1ncc2nc(-n3cc(C(=O)O)cn3)nc(O)c21 (single isomer, unassigned) [Example 342]
50	11	Cc1cc(Cn2ncc3nc(-n4cc(C(=O)O)cn4)nc(O)c32)ccc1-c1ccccc1 [Example 92]
680	140	CC(C)C(c1ccc(F)cc1)n1ncc2nc(-n3cc(C(=O)O)cn3)nc(O)c21 (stereo not drawn) [Example 354]
44	8.6	Cc1cc(-c2ccccc2F)ccc1Cn1ncc2nc(-n3cc(C(=O)O)cn3)nc(O)c21 [Example 88]
570	50	Cc1cc(C(C)n2ncc3nc(-n4cc(C(=O)O)cn4)nc(O)c32)ccc1F (single isomer, unassigned) [Example 302]
400	20	Cc1nn(Cc2ccc3ccccc3c2)c2c(O)nc(-n3cc(C(=O)O)cn3)nc12 [Example 445]
340	47	O=C(O)c1cnn(-c2nc(O)c3c(cnn3[C@@H]3CCc4ccccc43)n2)c1 [Example 396]
770	72	Cc1cc(C(C2CC2)n2ncc3nc(-n4cc(C(=O)O)cn4)nc(O)c32)ccc1F (stereo not drawn) [Example 376]
1100	84	O=C(O)c1cnn(-c2nc(O)c3c(cnn3CC3CCN(Cc4ccc(F)cc4)CC3)n2)c1 [Example 2, 1-(1-{[1-(4-fluorobenzyl)piperidin-4-yl]methyl}-7-hydroxy-1H-pyrazolo[4,3-d]pyrimidin-5-yl)-1H-pyrazole-4-carboxylic acid hydrochloride]
	72	C[C@@H](c1cc(F)ccc1F)n1ncc2nc(-n3cc(C(=O)O)cn3)nc(O)c21 [Example 261]
	74	O=C(O)c1cnn(-c2nc(O)c3c(cnn3CC3(c4ccccc4)CC3)n2)c1 [Example 122]
	160	C[C@@H](c1c(F)cccc1F)n1ncc2nc(-n3cc(C(=O)O)cn3)nc(O)c21 [Example 256]
	44	O=C(O)c1cnn(-c2nc(O)c3c(cnn3Cc3ccc(N4CCCC4=O)cc3)n2)c1 [Example 419]
490		CC(c1cc(Cl)ccc1Cl)n1ncc2nc(-n3cc(C(=O)O)cn3)nc(O)c21 (racemic) [Example 264]
	110	CCC(c1ccc(C)c(Cl)c1)n1ncc2nc(-n3cc(C(=O)O)cn3)nc(O)c21 (stereo not drawn) [Example 348]
